In patent publication USRE48461E1, “Modulation of androgen receptor expression” (Ionis Pharmaceuticals, Inc., priority 2012, dated 2021):

Assays:
Type in all cases: cell-based, human
PSA mRNA = assay: PSA expression in C4-2B cells (Example 30); details: 48 hrs
Method: Cells were plated at 1,000 cells per well. […] ISIS 549148 was included as a negative control. […] After an incubation period of 48 hrs, RNA levels of AR, PSA and TMPRSS2 were measured.
Cells were plated at 2,000 cells per well and cultured in CSS media with 1 nM DHT. […] ISIS 549148 was included as a negative control. […] After an incubation period of 48 hrs, RNA levels of AR, PSA and TMPRSS2 were measured. In the absence of DHT, AR expression in C4-2 cells was 188%, PSA expression was 43% and TMPRSS2 expression was 27% compared to the untreated control.

[1] = test system: prostate-specific antigen (PSA) mRNA; assay: Time-course PSA expression in C4-2B cells
Method: C4-2B cells were plated at 1,000 cells per well in complete medium. […] ISIS 549148 was included as a negative control. […] After a treatment period of 8 hours, 24 hours, and 48 hours, AR expression was measured with primer probe set hAR-LTS00943. Results are presented in Tables 70-72 as percent expression of AR, relative to non-treated cells.
Expression analysis of prostate-specific antigen (PSA) and TMPRSS2 were also analyzed. Results are presented in Tables 73-75 as percent inhibition of PSA expression and Tables 76-78 as percent inhibition of TMPRSS2 expression, relative to non-treated cells.

VCaP cells = assay: VCaP cell proliferation; details: VCaP cells, 5 days
Method: (§1) After a treatment period of 5 days in complete medium or CSS+1 nM DHT medium, the proliferative capacity of the cancer cells was measured with using CellTiter 96® AQueous One or CellTiter-Glo® Solution Cell Proliferation kit (Promega), following the manufacturer's instructions. […] Treatment with ISIS oligonucleotides in CSS+DHT medium reduced the proliferative capacity to a greater extent than treatment with MVD-3100. The proliferative capacity of cells cultured in CSS medium without DHT is 12% of untreated control levels.

full length AR mRNA [2] = assay: Full-length AR RNA in 22RV1 cells (complete, CSS+DHT medium); details: RNAiMax, 48 hrs
Method: Cells were plated at 1,000 cells per well. […] After an incubation period of 48 hrs, RNA levels of full length AR, the V7 variant, PSA and TMPRSS2 were measured.
After an incubation period of 48 hrs, RNA levels of full length AR, the V7 variant, PSA and TMPRSS2 were measured.
Cells were plated at 2,000 cells per well and cultured in CSS media for 16 hours. […] After 4 hrs, 1 nM DHT was added. […] After an incubation period of 48 hrs, RNA levels of AR, AR V7 variant, PSA and TMPRSS2 were measured.

full length AR mRNA [3] = assay: Full-length AR RNA in VCaP cells (complete, CSS+DHT medium); details: RNAiMax, 48 hrs
Method: Cells were plated at 10,000 cells per well. […] After an incubation period of 48 hrs, RNA levels of full length AR, the V7 variant, PSA and TMPRSS2 were measured.
After an incubation period of 48 hrs, RNA levels of full length AR, the V7 variant, PSA and TMPRSS2 were measured. The data is presented in Tables 108 expressed as percent expression of gene levels compared to the untreated control.
Cells were plated at 15,000 cells per well and cultured in CSS media for 16 hours. […] After 4 hrs, 1 nM DHT was added. […] After an incubation period of 48 hrs, RNA levels of AR, PSA and TMPRSS2 were measured.

LNCaP cells = assay: LNCaP cell proliferation (complete or CSS+DHT medium); details: 5 days; for Proliferation (% untreated control) in LNCaP cells cultured in CSS + DHT medium: CSS + 1 nM DHT medium
Method: as §1, with “One Solution” for “One”, “solution” for “Solution”, “17%” for “12%”

GGCTACTACGCCGTCA (3-10-3 (S)-cEt gapmer, chemistry not fully specified) [ISIS 549148, reference compound]
Percent inhibition of PSA expression (PSA mRNA; CSS + DHT medium, 0.04 μM): 0%
Percent inhibition of PSA expression (PSA mRNA; CSS + DHT medium, 0.2 μM): 0%
Percent inhibition of PSA expression (PSA mRNA; CSS + DHT medium, 1 μM): 0%
Percent inhibition of PSA expression (PSA mRNA; CSS + DHT medium, 5.0 μM): 0%
Percent inhibition of PSA expression (PSA mRNA; complete medium, 0.04 μM): 3%
Percent inhibition of PSA expression (PSA mRNA; complete medium, 0.2 μM): 11%
Percent inhibition of PSA expression (PSA mRNA; complete medium, 1 μM): 18%
Percent inhibition of PSA expression (PSA mRNA; complete medium, 5.0 μM): 14%
Percent inhibition of PSA expression compared to the control group in 8 hours ([1]; 0.04 μM): 1%
Percent inhibition of PSA expression compared to the control group in 24 hours ([1]; 0.04 μM): 22%
Percent inhibition of PSA expression compared to the control group in 48 hours ([1]; 0.04 μM): 2%
Percent inhibition of PSA expression compared to the control group in 8 hours ([1]; 0.2 μM): 8%
Percent inhibition of PSA expression compared to the control group in 24 hours ([1]; 0.2 μM): 13%
Percent inhibition of PSA expression compared to the control group in 48 hours ([1]; 0.2 μM): 0%
Percent inhibition of PSA expression compared to the control group in 8 hours ([1]; 1 μM): 8%
Percent inhibition of PSA expression compared to the control group in 24 hours ([1]; 1 μM): 16%
Percent inhibition of PSA expression compared to the control group in 48 hours ([1]; 1 μM): 18%
Percent inhibition of PSA expression compared to the control group in 8 hours ([1]; 5.0 μM): 0%
Percent inhibition of PSA expression compared to the control group in 24 hours ([1]; 5.0 μM): 6%
Percent inhibition of PSA expression compared to the control group in 48 hours ([1]; 5.0 μM): 10%
Proliferation (% untreated control) (VCaP cells; CSS + DHT medium, 1.34 nM): 114 % untreated control
Proliferation (% untreated control) (VCaP cells; CSS + DHT medium, 4.0 nM): 123 % untreated control
Proliferation (% untreated control) (VCaP cells; CSS + DHT medium, 13.4 nM): 104 % untreated control
Proliferation (% untreated control) (VCaP cells; CSS + DHT medium, 40 nM): 92 % untreated control
Proliferation (% untreated control) (VCaP cells; complete medium, 1.34 nM): 98 % untreated control
Proliferation (% untreated control) (VCaP cells; complete medium, 4.0 nM): 98 % untreated control
Proliferation (% untreated control) (VCaP cells; complete medium, 13.4 nM): 113 % untreated control
Proliferation (% untreated control) (VCaP cells; complete medium, 40 nM): 106 % untreated control
Percent inhibition of full-length AR (full length AR mRNA [2]; CSS + DHT medium, 1.34 nM): 2%
Percent inhibition of full-length AR (full length AR mRNA [2]; CSS + DHT medium, 4.0 nM): 13%
Percent inhibition of full-length AR (full length AR mRNA [2]; CSS + DHT medium, 13.4 nM): 22%
Percent inhibition of full-length AR (full length AR mRNA [2]; complete medium, 1.34 nM): 6%
Percent inhibition of full-length AR (full length AR mRNA [2]; complete medium, 4.0 nM): 0%
Percent inhibition of full-length AR (full length AR mRNA [2]; complete medium, 13.4 nM): 11%
Percent inhibition of full-length AR (full length AR mRNA [2]; complete medium, 40 nM): 17%
Percent inhibition of full-length AR (full length AR mRNA [3]; CSS medium, 1.34 nM): 0%
Percent inhibition of full-length AR (full length AR mRNA [3]; CSS medium, 4.0 nM): 0%
Percent inhibition of full-length AR (full length AR mRNA [3]; CSS medium, 13.4 nM): 0%
Percent inhibition of full-length AR (full length AR mRNA [3]; CSS medium, 40 nM): 0%
Percent inhibition of full-length AR (full length AR mRNA [3]; complete medium, 1.34 nM): 0%
Percent inhibition of full-length AR (full length AR mRNA [3]; complete medium, 4.0 nM): 8%
Percent inhibition of full-length AR (full length AR mRNA [3]; complete medium, 13.4 nM): 5%
Percent inhibition of full-length AR (full length AR mRNA [3]; complete medium, 40 nM): 17%
Proliferation (% untreated control) in LNCaP cells cultured in CSS + DHT medium (LNCaP cells; 0.04 μM): 112 % untreated control
Proliferation (% untreated control) in LNCaP cells cultured in CSS + DHT medium (LNCaP cells; 0.2 μM): 96 % untreated control
Proliferation (% untreated control) in LNCaP cells cultured in CSS + DHT medium (LNCaP cells; 1 μM): 95 % untreated control
Proliferation (% untreated control) in LNCaP cells cultured in CSS + DHT medium (LNCaP cells; 5.0 μM): 89 % untreated control
Proliferation (% untreated control) in LNCaP cells cultured in complete medium (LNCaP cells; 0.04 μM): 101 % untreated control
Proliferation (% untreated control) in LNCaP cells cultured in complete medium (LNCaP cells; 0.2 μM): 95 % untreated control
Proliferation (% untreated control) in LNCaP cells cultured in complete medium (LNCaP cells; 1 μM): 94 % untreated control
Proliferation (% untreated control) in LNCaP cells cultured in complete medium (LNCaP cells; 5.0 μM): 110 % untreated control
